From PubChem BioAssay (NCI)
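Growth conditions: 96-well plates. Treatment: test compound, 48 hours, 5 concentrations. Analysis: linear interpolation between bracketing concentrations; unreached endpoints set to highest concentration. GI50 is the concentration that inhibits growth by half. TGI: concentration producing complete growth inhibition.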 Non-standard residues stand in square brackets, D forms with d. Residues, ends and D or L forms follow the SMILES beside them. *: point of attachment. ONb = O=[N+]([O-])c1ccc(CO*)cc1; AllylGly = C=CC[CH](N)C(=O)O; Boc = CC(C)(C)OC(=O)*

What was measured:
Experiment in all cases: growth of human tumour cells (NCI), 48 h
NCI/ADR-RES ovarian = test system: NCI/ADR-RES ovarian
RXF 393 renal = test system: RXF 393 renal
HCC-2998 colon = test system: HCC-2998 colon
HCT-15 colon = test system: HCT-15 colon
K-562 leukemia = test system: K-562 leukemia
PC-3 prostate = test system: PC-3 prostate

COc1cc2c3c(n(C)c(=O)c2cc1OC)-c1cc2c(cc1/C3=C\CCCCCN)OCO2
GI50 (NCI/ADR-RES ovarian): 2.6 µM
TGI (NCI/ADR-RES ovarian): > 48.8 µM
GI50 (RXF 393 renal): 7 µM
TGI (RXF 393 renal): 41 µM
GI50 (HCC-2998 colon): 1.28 µM
TGI (HCC-2998 colon): 39.5 µM
GI50 (HCT-15 colon): 1.58 µM
TGI (HCT-15 colon): 12.7 µM

O=C(CCCCCCSc1nc(-c2ccccc2)cc(-c2ccc(Cl)cc2)n1)NO
GI50 (K-562 leukemia): 1.66 µM
TGI (K-562 leukemia): 10.8 µM
GI50 (PC-3 prostate): 1.98 µM
TGI (PC-3 prostate): 10.5 µM
GI50 (NCI/ADR-RES ovarian): 0.596 µM
TGI (NCI/ADR-RES ovarian): 8.84 µM
GI50 (RXF 393 renal): 1.57 µM
TGI (RXF 393 renal): 3.89 µM
GI50 (HCC-2998 colon): 2.44 µM
TGI (HCC-2998 colon): 7.19 µM
GI50 (HCT-15 colon): 2.27 µM
TGI (HCT-15 colon): 14 µM

CCC[CH2][Sn-]([CH2]CCC)([CH2]CCC)[O]c1cc(Cl)c(Cl)cc1Cl
GI50 (K-562 leukemia): 0.165 µM
TGI (K-562 leukemia): 0.411 µM
GI50 (PC-3 prostate): 0.207 µM
TGI (PC-3 prostate): 0.458 µM
GI50 (NCI/ADR-RES ovarian): 0.163 µM
TGI (NCI/ADR-RES ovarian): 0.385 µM
GI50 (RXF 393 renal): 0.196 µM
TGI (RXF 393 renal): 0.509 µM
GI50 (HCC-2998 colon): 0.176 µM
TGI (HCC-2998 colon): 0.334 µM
GI50 (HCT-15 colon): 0.165 µM
TGI (HCT-15 colon): 0.33 µM

O=C(Nc1ccc(N2CCNCC2)cc1)c1[nH]ncc1Nc1ncnc2sc3c(c12)CCC3
GI50 (K-562 leukemia): 0.115 µM
TGI (K-562 leukemia): 0.472 µM
GI50 (PC-3 prostate): 0.179 µM
TGI (PC-3 prostate): 1.49 µM
GI50 (NCI/ADR-RES ovarian): 1.48 µM
TGI (NCI/ADR-RES ovarian): 3.7 µM
GI50 (RXF 393 renal): 0.394 µM
TGI (RXF 393 renal): 1.89 µM
GI50 (HCC-2998 colon): 0.62 µM
TGI (HCC-2998 colon): 2.19 µM
GI50 (HCT-15 colon): 0.224 µM
TGI (HCT-15 colon): 1.29 µM

COc1nc(N(C)O)nc(N(C)O)n1
GI50 (K-562 leukemia): 2.94 µM
TGI (K-562 leukemia): > 100 µM
GI50 (PC-3 prostate): 3.1 µM
TGI (PC-3 prostate): > 100 µM
GI50 (RXF 393 renal): 1.95 µM
TGI (RXF 393 renal): > 100 µM
GI50 (HCC-2998 colon): 2.25 µM
TGI (HCC-2998 colon): > 100 µM
GI50 (HCT-15 colon): 0.519 µM
TGI (HCT-15 colon): > 100 µM

C=CCn1c2c(c3ccccc3c1=O)C(=O)c1ccccc1-2
TGI (K-562 leukemia): > 100 µM
TGI (PC-3 prostate): > 100 µM
TGI (NCI/ADR-RES ovarian): > 100 µM
TGI (RXF 393 renal): > 100 µM
TGI (HCC-2998 colon): > 100 µM
TGI (HCT-15 colon): > 100 µM

COc1ccc2cc(C(=O)/C=C/c3cc(OC)c(OC)c(OC)c3)ccc2c1
GI50 (K-562 leukemia): 2.49 µM
TGI (K-562 leukemia): > 50 µM
GI50 (PC-3 prostate): 9.84 µM
TGI (PC-3 prostate): > 50 µM
GI50 (HCT-15 colon): 1.77 µM
TGI (HCT-15 colon): > 50 µM

COc1cc(/C(C#N)=C/c2ccc3c(c2OC)OCO3)cc2c1OCO2
GI50 (K-562 leukemia): 0.0358 µM
TGI (K-562 leukemia): > 32.9 µM
GI50 (PC-3 prostate): 0.0967 µM
TGI (PC-3 prostate): > 78.4 µM
GI50 (NCI/ADR-RES ovarian): 0.0346 µM
TGI (NCI/ADR-RES ovarian): 0.381 µM
GI50 (RXF 393 renal): 0.174 µM
TGI (RXF 393 renal): 0.753 µM
GI50 (HCC-2998 colon): 0.182 µM
TGI (HCC-2998 colon): 10.8 µM
GI50 (HCT-15 colon): 0.0748 µM
TGI (HCT-15 colon): > 100 µM

Cc1ncc(CN=Cc2ccc(Cl)cc2)c(N)n1
TGI (K-562 leukemia): > 100 µM
TGI (PC-3 prostate): > 100 µM
TGI (NCI/ADR-RES ovarian): > 100 µM
TGI (RXF 393 renal): > 100 µM
TGI (HCT-15 colon): > 100 µM

O=c1oc2cc(OS(=O)(=O)c3ccc(F)cc3)ccc2c2c1CCCCC2
GI50 (NCI/ADR-RES ovarian): > 100 µM
TGI (NCI/ADR-RES ovarian): > 100 µM
GI50 (HCC-2998 colon): > 100 µM
TGI (HCC-2998 colon): > 100 µM

CN(C)c1cccc2c(S(=O)(=O)N[C@H]3CC[C@H]4[C@@H]5CCc6cc(O)ccc6[C@H]5CC[C@]34C)cccc12
GI50 (K-562 leukemia): 1.71 µM
TGI (K-562 leukemia): > 100 µM
GI50 (PC-3 prostate): 2.36 µM
TGI (PC-3 prostate): > 100 µM
GI50 (NCI/ADR-RES ovarian): 2.74 µM
TGI (NCI/ADR-RES ovarian): 9.9 µM
GI50 (RXF 393 renal): 2.02 µM
TGI (RXF 393 renal): 4.34 µM
GI50 (HCC-2998 colon): 3.17 µM
TGI (HCC-2998 colon): 14.6 µM
GI50 (HCT-15 colon): 0.951 µM
TGI (HCT-15 colon): 8.38 µM

COc1ccc(Cl)cc1Nc1nc(C(F)(F)F)ccc1C(=O)N/N=C/c1c(Cl)cccc1Cl
GI50 (K-562 leukemia): 3.34 µM
TGI (K-562 leukemia): 32.5 µM
GI50 (RXF 393 renal): 17.9 µM
TGI (RXF 393 renal): 58.8 µM
GI50 (HCC-2998 colon): 5.37 µM
TGI (HCC-2998 colon): > 100 µM
GI50 (HCT-15 colon): 3.26 µM
TGI (HCT-15 colon): > 100 µM

CC(=O)Nc1ccc2c(c1)c(C1=C(c3cn(C)c4ccccc34)C(=O)NC1=O)cn2C
GI50 (K-562 leukemia): 0.926 µM
TGI (K-562 leukemia): > 25 µM
GI50 (PC-3 prostate): 0.754 µM
TGI (PC-3 prostate): 22.1 µM
GI50 (NCI/ADR-RES ovarian): 1.58 µM
TGI (NCI/ADR-RES ovarian): > 25 µM
GI50 (RXF 393 renal): 0.608 µM
TGI (RXF 393 renal): 2.68 µM
GI50 (HCC-2998 colon): > 11.2 µM
TGI (HCC-2998 colon): > 25 µM
GI50 (HCT-15 colon): 1.02 µM
TGI (HCT-15 colon): > 25 µM

C=CCC(NC(=O)OC(C)(C)C)C(=O)NC(CCC(=O)OCc1ccc([N+](=O)[O-])cc1)C(N)=O (centres undefined) (Boc-[AllylGly]-Glu(ONb)-NH2; configuration not given here)
GI50 (K-562 leukemia): 18.2 µg/mL
TGI (K-562 leukemia): 65.5 µg/mL
GI50 (HCC-2998 colon): 19.2 µg/mL
TGI (HCC-2998 colon): 43.7 µg/mL

O=[N+]([O-])C1C(c2ccccc2)C12c1ccccc1-c1ccccc12 (centres undefined)
GI50 (K-562 leukemia): 0.452 µM
TGI (K-562 leukemia): > 65.9 µM
GI50 (PC-3 prostate): 0.947 µM
TGI (PC-3 prostate): > 100 µM
GI50 (NCI/ADR-RES ovarian): 0.657 µM
TGI (NCI/ADR-RES ovarian): > 23.7 µM
GI50 (RXF 393 renal): 0.845 µM
TGI (RXF 393 renal): 6.24 µM
GI50 (HCC-2998 colon): 1.49 µM
TGI (HCC-2998 colon): 6.43 µM
GI50 (HCT-15 colon): 0.546 µM
TGI (HCT-15 colon): 30.4 µM

Cc1c2c(nn1-c1ccc(S(=O)(=O)NC(=S)Nc3ccccc3)cc1)-c1ccccc1CC2
GI50 (K-562 leukemia): > 50 µM
TGI (K-562 leukemia): > 50 µM
GI50 (PC-3 prostate): 39.9 µM
TGI (PC-3 prostate): > 50 µM
GI50 (NCI/ADR-RES ovarian): > 50 µM
TGI (NCI/ADR-RES ovarian): > 50 µM
GI50 (RXF 393 renal): > 50 µM
TGI (RXF 393 renal): > 50 µM
GI50 (HCT-15 colon): 38.8 µM
TGI (HCT-15 colon): > 50 µM

C=C1CC2(OC1=O)C(=O)N(CCCCCCCN1C(=O)C3(CC(=C)C(=O)O3)c3ccccc31)c1ccccc12 (centres undefined)
GI50 (K-562 leukemia): 0.953 µM
TGI (K-562 leukemia): 6.06 µM
GI50 (PC-3 prostate): 1.53 µM
TGI (PC-3 prostate): 6.58 µM
GI50 (NCI/ADR-RES ovarian): 1.68 µM
TGI (NCI/ADR-RES ovarian): 8.78 µM
GI50 (RXF 393 renal): 0.86 µM
TGI (RXF 393 renal): 2.06 µM
GI50 (HCC-2998 colon): 6.44 µM
TGI (HCC-2998 colon): 13.7 µM
GI50 (HCT-15 colon): 1.3 µM
TGI (HCT-15 colon): 4.61 µM

COc1cc(-c2nn(-c3ccc(NC(=O)c4ccc(Cl)c(Cl)c4)cc3)cc2-c2ccncc2)ccc1Cl
GI50 (K-562 leukemia): 4.05 µM
TGI (K-562 leukemia): > 100 µM
GI50 (PC-3 prostate): 6.28 µM
TGI (PC-3 prostate): > 100 µM
GI50 (NCI/ADR-RES ovarian): 7.16 µM
TGI (NCI/ADR-RES ovarian): > 100 µM
GI50 (RXF 393 renal): 1.5 µM
TGI (RXF 393 renal): 4.53 µM
GI50 (HCC-2998 colon): 31.8 µM
TGI (HCC-2998 colon): > 100 µM
GI50 (HCT-15 colon): 2.68 µM
TGI (HCT-15 colon): > 100 µM

O=C(NNc1nc(Cl)nc(N2CCN(C(c3ccccc3)c3ccccc3)CC2)n1)c1ccccc1
GI50 (K-562 leukemia): 0.734 µM
TGI (K-562 leukemia): > 100 µM
GI50 (PC-3 prostate): 1.83 µM
TGI (PC-3 prostate): 3.81 µM
GI50 (NCI/ADR-RES ovarian): 2.08 µM
TGI (NCI/ADR-RES ovarian): 4.41 µM
GI50 (RXF 393 renal): 1.62 µM
TGI (RXF 393 renal): 3.13 µM
GI50 (HCC-2998 colon): 1.63 µM
TGI (HCC-2998 colon): 3.16 µM
GI50 (HCT-15 colon): 1.62 µM
TGI (HCT-15 colon): 3.42 µM

N=C1C(c2nc(-c3ccc(Br)cc3)cs2)=C(O)CN1Cc1cccnc1
GI50 (K-562 leukemia): 8.17 µM
TGI (K-562 leukemia): > 100 µM
GI50 (PC-3 prostate): 44.3 µM
TGI (PC-3 prostate): > 100 µM
GI50 (NCI/ADR-RES ovarian): 16.3 µM
TGI (NCI/ADR-RES ovarian): > 100 µM
GI50 (RXF 393 renal): 7.98 µM
TGI (RXF 393 renal): 31.3 µM
GI50 (HCC-2998 colon): 24.3 µM
TGI (HCC-2998 colon): 80.4 µM
GI50 (HCT-15 colon): 24.4 µM
TGI (HCT-15 colon): > 100 µM

N#Cc1c(Sc2ccccc2N)cccc1Sc1ccccc1N
GI50 (K-562 leukemia): 22.9 µM
GI50 (NCI/ADR-RES ovarian): 15.4 µM
TGI (NCI/ADR-RES ovarian): 38.4 µM
GI50 (RXF 393 renal): 72.8 µM
GI50 (HCC-2998 colon): 67.7 µM
GI50 (HCT-15 colon): 55.6 µM
